From US9663528B2, “Substituted 1,2,3,4,6,8,12,12a-octahydro-1,4-methanodipyrido[1,2-a:1',2'-d]pyrazines and methods for treating viral infections” (priority 2012, dated 2017)
Like-named read-outs stand apart in the source and are kept apart here.

Legend:
in vitro = details: human
Description: For the antiviral assay utilizing MT4 cells, 0.4 μL of […] test concentration of 3-fold serially diluted compound in DMSO was added to 40 μL of cell growth medium (RPMI 1640, 10% FBS, 1% penicilline/Streptomycine, 1% L-Glutamine, 1% HEPES) in each well of 384-well assay plates (10 concentrations) in quidruplicate.
1 mL aliquots of 2×10^6 MT4 cells are pre-infected for 1 and 3 hours respectively at 37° C. with 25 μL (MT4) or of either cell growth medium (mock-infected) or a fresh 1:250 dilution of an HIV-IIIb concentrated ABI stock (0.004 m.o.i. for MT4 cells). Infected and uninfected cells are diluted in cell growth medium and 35 μL of 2000 (for MT4) cells is added to each well of the assay plates.
Assay plates were then incubated in a 37° C. incubator. After 5 days of incubation, 25 μL of 2× concentrated CellTiter-Glo™ Reagent (catalog #G7573, Promega Biosciences, Inc., Madison, Wis.) was added to each well of the assay plate. Cell lysis was carried out by incubating at room temperature for 2-3 minutes, and then chemiluminescence was read using the Envision reader (PerkinElmer).

PXR = PXR (Homo sapiens (Human), UniProt O75469); assay: Human PXR activation assay (luciferase reporter gene assay, DPX2 cells); assay type: cell-based; details: human
Description: A stably transformed tumor cell line (DPX2) was plated on 96-well microtiter plates. DPX2 cells harbor the human PXR gene (NR112) and a luciferase reporter gene linked to two promoters identified in the human CYP3A4 gene, namely XREM and PXRE. […] The number of viable cells was determined and the reporter gene activity was assessed. Positive control: […]

[1] = 15 μM, relative to maximum fold induction by 10 or 20 μM rifampicin, DPX2 cells, 24 hours, read-out: % Emax at 15 μM

Sequence of PXR (O75469 whole entry): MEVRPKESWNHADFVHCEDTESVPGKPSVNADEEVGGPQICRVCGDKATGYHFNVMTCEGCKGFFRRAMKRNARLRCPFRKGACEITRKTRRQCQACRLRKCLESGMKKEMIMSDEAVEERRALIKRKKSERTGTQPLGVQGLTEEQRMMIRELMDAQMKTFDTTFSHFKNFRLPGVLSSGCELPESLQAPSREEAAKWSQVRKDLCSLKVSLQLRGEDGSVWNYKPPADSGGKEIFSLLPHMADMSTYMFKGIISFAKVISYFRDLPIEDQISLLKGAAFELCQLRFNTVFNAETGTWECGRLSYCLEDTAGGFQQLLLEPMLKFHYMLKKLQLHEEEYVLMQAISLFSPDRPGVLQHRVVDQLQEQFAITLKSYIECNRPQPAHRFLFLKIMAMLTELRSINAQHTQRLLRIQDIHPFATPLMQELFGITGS

Row | SMILES | CC50 at 5 days (in vitro; CC50 nM in MT-4) [nM] | Emax at 24 h, 15 µM (PXR) [%] | CC50 at 5 days (in vitro; MT-4 cells, mock-infected, CC50 nM in MT-4, MT-4 cells, 5 days incubation) [nM] | Emax at 24 h, 15 µM (PXR; [1]) [%]
1 | C[C@@H]1C[C@H]2C[C@@H]1[C@@H]1Cn3cc(C(=O)NCc4c(F)cc(F)cc4F)c(=O)c(O)c3C(=O)N21 [Compound 84, (1S,2R,4S,12aR)-7-hydroxy-2-methyl-6,8-dioxo-N-(2,4,6-trifluorobenzyl)-1,2,3,4,6,8,12,12a-octahydro-1,4-methanodipyrido[1,2-a:1′,2′-d]pyrazine-9-carboxamide] | 9730 | 21 |  | 
2 | C[C@@H](NC(=O)c1cn2c(c(O)c1=O)C(=O)N1[C@H]3CC[C@H](C3)[C@@H]1C2)c1ccc(F)cc1F [Compound 43, (12aR)-N—((R)-1-(2,4-difluorophenyl)ethyl)-7-hydroxy-6,8-dioxo-1,2,3,4,6,8,12,12a-octahydro-1,4-methanodipyrido[1,2-a:1′,2′-d]pyrazine-9-carboxamide] | 10300 | 18 |  | 
3 | O=C(NCc1c(F)cc(F)cc1F)c1cn2c(c(O)c1=O)C(=O)N1[C@H](C2)[C@H]2C[C@H](F)[C@@H]1C2 [Compound 81, (1R,3S,4S,12aS)-3-fluoro-7-hydroxy-6,8-dioxo-N-(2,4,6-trifluorobenzyl)-1,2,3,4,6,8,12,12a-octahydro-1,4-methanodipyrido[1,2-a:1′,2′-d]pyrazine-9-carboxamide] | 12300 | 1 |  | 
4 | C[C@H]1CO[C@@H]2Cn3cc(C(=O)NC4(c5ccc(F)cc5F)CC4)c(=O)c(O)c3C(=O)N12 [Compound 37, (3S,11aR)-N-(1-(2,4-difluorophenyl)cyclopropyl)-6-hydroxy-3-methyl-5,7-dioxo-2,3,5,7,11,11a-hexahydrooxazolo[3,2-a]pyrido[1,2-d]pyrazine-8-carboxamide] |  |  | 19500 | 2
5 | O=C(NCc1cc(F)c(F)cc1F)c1cn2c(c(O)c1=O)C(=O)N1[C@H]3CC[C@H](C3)[C@@H]1C2 [Compound 79, (1R,4S,12aR)-7-hydroxy-6,8-dioxo-N-(2,4,5-trifluorobenzyl)-1,2,3,4,6,8,12,12a-octahydro-1,4-methanodipyrido[1,2-a:1′,2′-d]pyrazine-9-carboxamide] | 12100 | 0 |  | 
6 | O=C(NCc1ccc(F)cc1F)c1cn2c(c(O)c1=O)C(=O)N1C(C2)[C@H]2CC[C@@H]1C2 (stereo in doubt) [Compound 38, (1S,4R,12aR)-N-(2,4-difluorobenzyl)-7-hydroxy-6,8-dioxo-1,2,3,4,6,8,12,12a-octahydro-1,4-methanodipyrido[1,2-a:1′,2′-d]pyrazine-9-carboxamide] | 10200 |  |  | 7
7 | C[C@@H](NC(=O)c1cn2c(c(O)c1=O)C(=O)N1[C@H]3CC[C@H](C3)O[C@@H]1C2)c1ccc(F)cc1 [Compound 10, (2R,5S,13aR)-N—((R)-1-(4-fluorophenyl)ethyl)-8-hydroxy-7,9-dioxo-2,3,4,5,7,9,13,13a-octahydro-2,5-methanopyrido[1′,2′:4,5]pyrazino[2,1-b][1,3]oxazepine-10-carboxamide] | 3670 | 19 |  | 
8 | O=C(NCc1ccc(F)cc1F)c1cn2c(c(O)c1=O)C(=O)N1C(C2)[N@@]2CCC[C@@H]1C2 (stereo partly drawn) [Compound 20, (1S,5R)-N-(2,4-difluorobenzyl)-8-hydroxy-7,9-dioxo-2,3,4,5,7,9,13,13a-octahydro-1,5-methanopyrido[1′,2′:4,5]pyrazino[1,2-a][1,3]diazepine-10-carboxamide] | 28000 | 2 |  | 
9 | O=C(NCc1ccc(F)c(F)c1)c1cn2c(c(O)c1=O)C(=O)N1[C@H]3CC[C@H](C3)[C@@H]1C2 [Compound 66, (1R,4S,12aR)-N-(3,4-difluorobenzyl)-7-hydroxy-6,8-dioxo-1,2,3,4,6,8,12,12a-octahydro-1,4-methanodipyrido[1,2-a:1′,2′-d]pyrazine-9-carboxamide] | 11800 | 0 |  | 
10 | O=C(NCc1ccc(F)cc1)c1cn2c(c(O)c1=O)C(=O)N1[C@@H]3CC[C@@H](C3)O[C@H]1C2 [Compound 15, (2S,5R,13aS)-N-(4-fluorobenzyl)-8-hydroxy-7,9-dioxo-2,3,4,5,7,9,13,13a-octahydro-2,5-methanopyrido[1′,2′:4,5]pyrazino[2,1-b][1,3]oxazepine-10-carboxamide] | 16300 | 20 |  | 
11 | O=C(NC1(c2ccc(F)cc2F)CCCC1)c1cn2c(c(O)c1=O)C(=O)N1C(C2)O[C@H]2CC[C@@H]1C2 (stereo partly drawn) [Compound 33, (2S,5R)-N-(1-(2,4-difluorophenyl)cyclopentyl)-8-hydroxy-7,9-dioxo-2,3,4,5,7,9,13,13a-octahydro-2,5-methanopyrido[1′,2′:4,5]pyrazino[2,1-b][1,3]oxazepine-10-carboxamide] | 3970 | 17 |  | 
12 | O=C(NCc1c(Cl)ccc(Cl)c1F)c1cn2c(c(O)c1=O)C(=O)N1[C@H]3CC[C@H](C3)[C@@H]1C2 [Compound 71, (1R,4S,12aR)-N-(3,6-dichloro-2-fluorobenzyl)-7-hydroxy-6,8-dioxo-1,2,3,4,6,8, 12,12a-octahydro-1,4-methanodipyrido[1,2-a:1′,2′-d]pyrazine-9-carboxamide] | 4660 | 3 |  | 
13 | O=C(NCc1ccc(F)cc1C(F)(F)F)c1cn2c(c(O)c1=O)C(=O)N1[C@H]3CC[C@H](C3)[C@@H]1C2 [Compound 67, (1R,4S,12aR)-N-(4-fluoro-2-(trifluoromethyl)benzyl)-7-hydroxy-6,8-dioxo-1,2,3,4,6,8,12,12a-octahydro-1,4-methanodipyrido[1,2-a:1′,2′-d]pyrazine-9-carboxamide] | 2980 | 0 |  | 
14 | O=C(NCc1cccc(Cl)c1F)c1cn2c(c(O)c1=O)C(=O)N1[C@H]3CC[C@H](C3)[C@@H]1C2 [Compound 90, (1R,4S,12aR)-N-(3-chloro-2-fluorobenzyl)-7-hydroxy-6,8-dioxo-1,2,3,4,6,8,12,12a-octahydro-1,4-methanodipyrido[1,2-a:1′,2′-d]pyrazine-9-carboxamide] | 8090 | 11 |  | 
15 | O=C(NCc1ccc(F)cc1F)c1cn2c(c(O)c1=O)C(=O)N1C(C2)[N@]2CCC[C@H]1C2 (stereo partly drawn) [Compound 19, (1R,5S)-N-(2,4-difluorobenzyl)-8-hydroxy-7,9-dioxo-2,3,4,5,7,9, 13,13a-octahydro-1,5-methanopyrido[1′,2′:4,5]pyrazino[1,2-a][1,3]diazepine-10-carboxamide] | 38700 | 2 |  | 
16 | O=C(NCc1cccc(Cl)c1F)c1cn2c(c(O)c1=O)C(=O)N1[C@H]3CC[C@H](C3)O[C@@H]1C2 [Compound 88, (2R,5S,13aR)-N-(3-chloro-2-fluorobenzyl)-8-hydroxy-7,9-dioxo-2,3,4,5,7,9,13,13a-octahydro-2,5-methanopyrido[1′,2′:4,5]pyrazino[2,1-b][1,3]oxazepine-10-carboxamide] | 3230 | 27 |  | 
17 | O=C(NCc1ccc(F)c(Cl)c1F)c1cn2c(c(O)c1=O)C(=O)N1[C@@H]3C[C@H]([C@@H]1C2)C(F)(F)C3 [Compound 58, (1R,4R,12aR)-N-(3-chloro-2,4-difluorobenzyl)-2,2-difluoro-7-hydroxy-6,8-dioxo-1,2,3,4,6,8,12,12a-octahydro-1,4-methanodipyrido[1,2-a:1′,2′-d]pyrazine-9-carboxamide] | 7690 | 1 |  | 
18 | O=C(NCc1ccccc1F)c1cn2c(c(O)c1=O)C(=O)N1[C@@H]3CC[C@@H](C3)O[C@H]1C2 [Compound 23, (2S,5R,13aS)-N-(2-fluorobenzyl)-8-hydroxy-7,9-dioxo-2,3,4,5,7,9,13,13a-octahydro-2,5-methanopyrido[1′,2′:4,5]pyrazino[2,1-b][1,3]oxazepine-10-carboxamide] | 13400 | 45 |  | 
19 | O=C(NCc1ccc(Cl)cc1F)c1cn2c(c(O)c1=O)C(=O)N1[C@H]3CC[C@H](C3)[C@@H]1C2 [Compound 92, (1R,4S,12aR)-N-(4-chloro-2-fluorobenzyl)-7-hydroxy-6,8-dioxo-1,2,3,4,6,8,12,12a-octahydro-1,4-methanodipyrido[1,2-a:1′,2′-d]pyrazine-9-carboxamide] | 4550 | 3 |  | 
20 | O=C(NC1(c2ccc(F)cc2F)CCC1)c1cn2c(c(O)c1=O)C(=O)N1C(C2)O[C@H]2CC[C@@H]1C2 (stereo partly drawn) [Compound 32, (2S,5R)-N-(1-(2,4-difluorophenyl)cyclobutyl)-8-hydroxy-7,9-dioxo-2,3,4,5,7,9,13,13a-octahydro-2,5-methanopyrido[1′,2′:4,5]pyrazino[2,1-b][1,3]oxazepine-10-carboxamide] | 4680 | 14 |  | 
21 | O=C(NCc1cccc(Cl)c1)c1cn2c(c(O)c1=O)C(=O)N1[C@H]3CC[C@H](C3)[C@@H]1C2 [Compound 72, (1R,4S,12aR)-N-(3-chlorobenzyl)-7-hydroxy-6,8-dioxo-1,2,3,4,6,8,12,12a-octahydro-1,4-methanodipyrido[1,2-a:1′,2′-d]pyrazine-9-carboxamide] | 6260 | 4 |  | 
